Measurements: patent US8415469B2, “Compounds and methods for kinase modulation, and indications therefor” (Plexxikon Inc., priority 2005, dated 2013)

Tests used:
Assay type in all cases: biochemical
Abl = biological target: T1, Abl (Homo sapiens, UniProt P00519); assay: AlphaScreen kinase assay, Abl; conditions: read-out: activity toward kinase Abl, IC50
T1 construct: P1121. pET-SPEC BI-PTP Abl G227-V515-X; His6 (N); made in house; host or cells: E. coli (PTP1B co-expressed)
T1 sequence (P00519 with tags, fused parts or gaps): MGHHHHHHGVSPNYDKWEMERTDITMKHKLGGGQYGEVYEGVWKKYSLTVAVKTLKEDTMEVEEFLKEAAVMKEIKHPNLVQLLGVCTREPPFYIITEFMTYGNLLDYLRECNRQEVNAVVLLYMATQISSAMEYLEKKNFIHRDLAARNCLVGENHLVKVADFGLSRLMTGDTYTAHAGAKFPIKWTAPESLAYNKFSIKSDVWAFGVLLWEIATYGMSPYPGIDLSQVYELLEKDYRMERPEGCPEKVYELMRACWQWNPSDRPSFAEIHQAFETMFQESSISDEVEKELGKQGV
Procedure, shortened: (§1)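 Compounds in DMSO (20 mM stock) were diluted 1:3 across 8 points. Each kinase phosphorylated a biotin-labelled peptide. Signal generated when donor and acceptor beads came close via antibody binding of phosphorylated substrate.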

Kdr = biological target: T2, Kdr (Homo sapiens, UniProt P35968); assay: Z'-Lyte FRET kinase assay (Invitrogen), Kdr; conditions: read-out: IC50, activity toward kinase Kdr
T2 construct: purchased Invitrogen (assay run by Invitrogen)

Stk6 = biological target: T3, Stk6 (Homo sapiens, UniProt O14965); assay: Z'-Lyte FRET kinase assay (Invitrogen), Stk6; conditions: read-out: IC50, activity toward kinase Stk6
T3 construct: purchased Invitrogen (Carlsbad, Calif.), screening service
T3 sequence (O14965 1-403): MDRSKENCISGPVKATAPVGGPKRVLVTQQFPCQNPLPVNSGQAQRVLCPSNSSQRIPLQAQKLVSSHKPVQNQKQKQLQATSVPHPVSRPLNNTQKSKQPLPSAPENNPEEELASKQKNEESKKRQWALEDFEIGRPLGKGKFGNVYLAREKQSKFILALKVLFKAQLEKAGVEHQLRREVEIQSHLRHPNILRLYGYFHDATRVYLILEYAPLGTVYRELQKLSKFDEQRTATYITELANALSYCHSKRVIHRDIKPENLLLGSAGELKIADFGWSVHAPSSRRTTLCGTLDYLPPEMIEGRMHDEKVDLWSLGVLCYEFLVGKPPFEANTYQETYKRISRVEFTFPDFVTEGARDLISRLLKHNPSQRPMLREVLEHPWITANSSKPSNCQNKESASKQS

Gsk3β = Gsk3β (Homo sapiens, UniProt P49841); assay: AlphaScreen kinase assay, Gsk3β; conditions: read-out: IC50, activity toward kinase Gsk3β
Text: AlphaScreen assay was used to screen additional kinases. The assay is similarly dependent on the phosphorylation of a peptide substrate. In this assay, an antibody that recognizes phosphorylated substrate is bound to an acceptor bead. The peptide substrate is attached to biotin, which binds to a donor head that contains streptavidin. Thus phosphorylated substrate is bound by antibody and streptavidin, bringing the donor and acceptor heads into close proximity when kinase is not inhibited. The donor produces singlet oxygen which results in emission from the acceptor when they are in close proximity. Conversely, when kinase is inhibited, the donor and acceptor beads are not associated and the emission from the acceptor is reduced.
AlphaScreen assays were done using compounds dissolved in DMSO to a concentration of 20 mM. The compounds were diluted accordingly to the desired final concentrations in each sample well, using 1:3 serial dilution for a total of 8 concentration points.

B-Raf = biological target: T4, B-Raf (Homo sapiens, UniProt P15056); assay: AlphaScreen kinase assay, B-Raf; conditions: read-out: IC50, activity toward kinase B-Raf
T4 construct: purchased Upstate Biotechnology

B-Raf V600E = biological target: T5, B-Raf V600E (Homo sapiens, UniProt P15056, V600E); assay: AlphaScreen kinase assay, B-Raf V600E; conditions: read-out: IC50, activity toward kinase B-Raf V600E
T5 construct: P4254. pFastBacBD-CDC37 BRAF D437-K722-X, V600E; His6 with pFastBac HT leader (TEV site) (N); made in house; host or cells: Sf9 (baculovirus; chaperone CDC37 co-expressed)

FGFR1 = biological target: T6, FGFR1 (Homo sapiens, UniProt P11362, C488A/C584S); assay: AlphaScreen kinase assay, FGFR1; conditions: read-out: IC50, activity toward kinase FGFR
T6 construct: P1351.pET N6 BI-PTP FGFR A458-E765-X C488A, C584S; made in house; host or cells: E. coli (PTP1B co-expressed)

Fms = biological target: T7, Fms (Homo sapiens, UniProt P07333); assay: AlphaScreen kinase assay, Fms; conditions: read-out: IC50, activity toward kinase Fms
T7 construct: purchased Upstate Biotechnology

Kit = biological target: T8, Kit (Homo sapiens, UniProt P10721); assay: AlphaScreen kinase assay, Kit; conditions: read-out: IC50, activity toward kinase Kit
T8 construct: P1332.N6 BI PTP KIT M552-K948-X COD; His6 (N); made in house; host or cells: E. coli (PTP1B co-expressed)

Src = biological target: T9, Src (Homo sapiens, UniProt P12931); assay: AlphaScreen kinase assay, Src; conditions: read-out: IC50, activity toward kinase Src
T9 construct: P1144. pET-N6 BI-PTP SRC V86-L536-X; made in house

MAP4K4 = MAP4K4 (Homo sapiens, UniProt O95819); assay: AlphaScreen kinase assay, MAP4K4; conditions: read-out: IC50, activity toward kinase MAP4K4
Btk = biological target: T10, Btk (Homo sapiens, UniProt Q06187); assay: Z'-Lyte FRET kinase assay (Invitrogen), Btk; conditions: read-out: IC50, activity toward kinase Btk
T10 construct: purchased Invitrogen (assay run by Invitrogen)

c-Raf-1 = biological target: T11, c-Raf-1 (Homo sapiens, UniProt P04049); assay: AlphaScreen kinase assay, c-Raf-1; conditions: read-out: IC50, activity toward kinase c-Raf-1
T11 construct: purchased Upstate Biotechnology

Jnk1 = biological target: T12, Jnk1 (Homo sapiens, UniProt P45983); assay: AlphaScreen kinase assay, Jnk1; conditions: read-out: IC50, activity toward kinase Jnk1
T12 construct: purchased Upstate Biotechnology

Jnk3 = biological target: T13, Jnk3 (Homo sapiens, UniProt P53779); assay: AlphaScreen kinase assay, Jnk3; conditions: read-out: IC50, activity toward kinase Jnk3
T13 construct: purchased Upstate Biotechnology

Met = biological target: T14, Met (Homo sapiens, UniProt P08581); assay: AlphaScreen kinase assay, Met; conditions: read-out: IC50, activity toward kinase Met
T14 construct: P1818.pETN6 BI-PTP MET G1056-G1364-X WT; His6 (N); made in house; host or cells: E. coli (PTP1B co-expressed)
Procedure, shortened: as §1

Ret = biological target: T15, Ret (Homo sapiens, UniProt P07949); assay: AlphaScreen kinase assay, Ret; conditions: read-out: IC50, activity toward kinase Ret
T15 construct: P1378.pET-SF BI-PTP RET H661-R1012 HIS; made in house
T15 sequence (P07949 with tags, fused parts or gaps): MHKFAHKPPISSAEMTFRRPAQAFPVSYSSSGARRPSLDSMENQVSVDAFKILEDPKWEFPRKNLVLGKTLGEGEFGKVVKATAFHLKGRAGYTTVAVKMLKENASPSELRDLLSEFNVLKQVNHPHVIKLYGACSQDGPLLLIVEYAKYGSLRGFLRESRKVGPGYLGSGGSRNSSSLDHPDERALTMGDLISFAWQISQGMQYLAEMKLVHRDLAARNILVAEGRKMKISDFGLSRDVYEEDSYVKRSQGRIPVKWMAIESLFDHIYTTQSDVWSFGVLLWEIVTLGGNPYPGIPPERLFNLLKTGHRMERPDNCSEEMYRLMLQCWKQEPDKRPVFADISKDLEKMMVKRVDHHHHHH

Flt1 = biological target: T16, Flt1 (Homo sapiens, UniProt P17948); assay: AlphaScreen kinase assay, Flt1; conditions: read-out: IC50, activity toward kinase Flt1
T16 construct: P1826.pETN6 BI-PTP FLT1 M799-D1165-X WT; His6 (N); made in house; host or cells: E. coli (PTP1B co-expressed)
T16 sequence (P17948 with tags, fused parts or gaps): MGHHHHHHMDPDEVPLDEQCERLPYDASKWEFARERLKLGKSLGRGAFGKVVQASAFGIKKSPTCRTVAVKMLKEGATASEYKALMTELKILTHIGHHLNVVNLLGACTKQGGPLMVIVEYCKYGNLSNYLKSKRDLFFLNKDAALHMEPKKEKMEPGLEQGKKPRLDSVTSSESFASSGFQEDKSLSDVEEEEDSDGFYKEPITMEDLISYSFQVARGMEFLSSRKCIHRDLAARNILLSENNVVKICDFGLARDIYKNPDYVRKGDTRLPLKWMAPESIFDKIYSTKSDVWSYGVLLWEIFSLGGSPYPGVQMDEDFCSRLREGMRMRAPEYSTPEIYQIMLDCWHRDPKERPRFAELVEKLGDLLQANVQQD

Pyk2 = biological target: T17, Pyk2 (Homo sapiens, UniProt Q14289); assay: AlphaScreen kinase assay, Pyk2; conditions: read-out: IC50, activity toward kinase Pyk2
T17 construct: purchased Upstate Biotechnology

T6 sequence (P11362 458-765 C488A/C584S): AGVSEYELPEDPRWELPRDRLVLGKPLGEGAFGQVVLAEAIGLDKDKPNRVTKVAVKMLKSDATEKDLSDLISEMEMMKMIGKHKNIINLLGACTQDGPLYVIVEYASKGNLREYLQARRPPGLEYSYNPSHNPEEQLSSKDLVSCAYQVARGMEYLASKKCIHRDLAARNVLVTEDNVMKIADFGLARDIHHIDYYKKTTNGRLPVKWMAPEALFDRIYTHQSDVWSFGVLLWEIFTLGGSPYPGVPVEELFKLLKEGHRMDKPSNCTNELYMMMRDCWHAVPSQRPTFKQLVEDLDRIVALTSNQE
T7 sequence (P07333 20-972): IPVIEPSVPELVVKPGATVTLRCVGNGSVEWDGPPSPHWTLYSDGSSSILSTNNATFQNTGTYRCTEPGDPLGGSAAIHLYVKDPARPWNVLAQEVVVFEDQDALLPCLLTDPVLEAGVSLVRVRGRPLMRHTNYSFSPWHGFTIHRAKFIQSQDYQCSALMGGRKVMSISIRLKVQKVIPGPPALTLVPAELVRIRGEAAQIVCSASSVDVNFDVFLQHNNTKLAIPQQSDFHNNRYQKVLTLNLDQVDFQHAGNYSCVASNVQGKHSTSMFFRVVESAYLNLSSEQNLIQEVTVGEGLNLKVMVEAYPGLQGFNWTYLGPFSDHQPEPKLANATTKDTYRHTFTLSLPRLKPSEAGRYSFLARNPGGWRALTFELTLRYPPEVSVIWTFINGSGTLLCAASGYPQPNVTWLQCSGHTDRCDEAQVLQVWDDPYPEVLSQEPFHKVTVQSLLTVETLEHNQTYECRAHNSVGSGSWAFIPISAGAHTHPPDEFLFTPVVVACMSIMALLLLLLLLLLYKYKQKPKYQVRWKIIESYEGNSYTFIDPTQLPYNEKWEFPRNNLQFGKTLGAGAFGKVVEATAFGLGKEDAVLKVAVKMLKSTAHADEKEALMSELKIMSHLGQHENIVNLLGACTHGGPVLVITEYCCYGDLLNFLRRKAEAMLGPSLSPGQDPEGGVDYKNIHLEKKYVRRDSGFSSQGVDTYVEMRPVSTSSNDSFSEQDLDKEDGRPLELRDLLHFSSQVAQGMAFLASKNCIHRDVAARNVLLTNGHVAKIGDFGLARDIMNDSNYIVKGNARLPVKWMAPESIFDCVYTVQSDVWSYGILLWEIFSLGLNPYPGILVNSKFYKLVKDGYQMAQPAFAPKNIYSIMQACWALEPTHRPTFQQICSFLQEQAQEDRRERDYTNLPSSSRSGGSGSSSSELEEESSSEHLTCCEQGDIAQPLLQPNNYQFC
T4 sequence (P15056 whole entry): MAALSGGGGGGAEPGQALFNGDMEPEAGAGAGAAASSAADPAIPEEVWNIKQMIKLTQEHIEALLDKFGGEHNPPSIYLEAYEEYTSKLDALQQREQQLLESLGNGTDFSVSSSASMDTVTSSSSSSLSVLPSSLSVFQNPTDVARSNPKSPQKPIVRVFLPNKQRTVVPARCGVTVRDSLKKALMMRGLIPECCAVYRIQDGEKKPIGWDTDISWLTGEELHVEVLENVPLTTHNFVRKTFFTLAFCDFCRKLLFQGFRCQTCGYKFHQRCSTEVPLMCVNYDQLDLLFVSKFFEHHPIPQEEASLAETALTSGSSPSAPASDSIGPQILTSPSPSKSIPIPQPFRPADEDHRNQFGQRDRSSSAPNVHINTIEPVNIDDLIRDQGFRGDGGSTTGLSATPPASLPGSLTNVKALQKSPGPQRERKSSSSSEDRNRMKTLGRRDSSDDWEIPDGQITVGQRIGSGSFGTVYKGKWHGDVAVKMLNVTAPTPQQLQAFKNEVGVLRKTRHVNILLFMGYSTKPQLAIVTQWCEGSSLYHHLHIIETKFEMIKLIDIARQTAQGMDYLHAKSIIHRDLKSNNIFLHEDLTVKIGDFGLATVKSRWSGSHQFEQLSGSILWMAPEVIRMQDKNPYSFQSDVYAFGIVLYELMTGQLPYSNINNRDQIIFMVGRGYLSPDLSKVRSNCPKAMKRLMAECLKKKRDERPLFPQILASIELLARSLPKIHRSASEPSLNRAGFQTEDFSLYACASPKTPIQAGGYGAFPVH
T5 sequence (P15056 with tags, fused parts or gaps V600E): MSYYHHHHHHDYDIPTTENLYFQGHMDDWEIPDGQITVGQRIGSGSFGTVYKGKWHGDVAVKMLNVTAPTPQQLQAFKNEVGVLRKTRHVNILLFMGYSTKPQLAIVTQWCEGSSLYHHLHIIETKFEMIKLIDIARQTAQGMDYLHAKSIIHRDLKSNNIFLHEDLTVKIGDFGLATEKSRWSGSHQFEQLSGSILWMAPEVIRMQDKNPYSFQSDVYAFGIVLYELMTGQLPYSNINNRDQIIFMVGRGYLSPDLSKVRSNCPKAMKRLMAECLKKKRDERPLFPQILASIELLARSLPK
T8 sequence (P10721 with tags, fused parts or gaps): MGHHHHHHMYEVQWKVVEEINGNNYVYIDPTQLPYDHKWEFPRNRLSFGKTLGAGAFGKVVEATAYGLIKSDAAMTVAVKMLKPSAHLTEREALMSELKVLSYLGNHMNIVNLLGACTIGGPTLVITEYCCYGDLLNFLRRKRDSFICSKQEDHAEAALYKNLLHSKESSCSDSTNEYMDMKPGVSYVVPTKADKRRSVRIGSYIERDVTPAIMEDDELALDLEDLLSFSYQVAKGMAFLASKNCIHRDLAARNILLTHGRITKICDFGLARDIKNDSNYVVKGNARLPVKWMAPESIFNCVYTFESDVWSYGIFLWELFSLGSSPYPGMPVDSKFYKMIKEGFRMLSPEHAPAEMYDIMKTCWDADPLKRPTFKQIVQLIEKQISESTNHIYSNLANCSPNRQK
Sequence of MAP4K4 (O95819 whole entry): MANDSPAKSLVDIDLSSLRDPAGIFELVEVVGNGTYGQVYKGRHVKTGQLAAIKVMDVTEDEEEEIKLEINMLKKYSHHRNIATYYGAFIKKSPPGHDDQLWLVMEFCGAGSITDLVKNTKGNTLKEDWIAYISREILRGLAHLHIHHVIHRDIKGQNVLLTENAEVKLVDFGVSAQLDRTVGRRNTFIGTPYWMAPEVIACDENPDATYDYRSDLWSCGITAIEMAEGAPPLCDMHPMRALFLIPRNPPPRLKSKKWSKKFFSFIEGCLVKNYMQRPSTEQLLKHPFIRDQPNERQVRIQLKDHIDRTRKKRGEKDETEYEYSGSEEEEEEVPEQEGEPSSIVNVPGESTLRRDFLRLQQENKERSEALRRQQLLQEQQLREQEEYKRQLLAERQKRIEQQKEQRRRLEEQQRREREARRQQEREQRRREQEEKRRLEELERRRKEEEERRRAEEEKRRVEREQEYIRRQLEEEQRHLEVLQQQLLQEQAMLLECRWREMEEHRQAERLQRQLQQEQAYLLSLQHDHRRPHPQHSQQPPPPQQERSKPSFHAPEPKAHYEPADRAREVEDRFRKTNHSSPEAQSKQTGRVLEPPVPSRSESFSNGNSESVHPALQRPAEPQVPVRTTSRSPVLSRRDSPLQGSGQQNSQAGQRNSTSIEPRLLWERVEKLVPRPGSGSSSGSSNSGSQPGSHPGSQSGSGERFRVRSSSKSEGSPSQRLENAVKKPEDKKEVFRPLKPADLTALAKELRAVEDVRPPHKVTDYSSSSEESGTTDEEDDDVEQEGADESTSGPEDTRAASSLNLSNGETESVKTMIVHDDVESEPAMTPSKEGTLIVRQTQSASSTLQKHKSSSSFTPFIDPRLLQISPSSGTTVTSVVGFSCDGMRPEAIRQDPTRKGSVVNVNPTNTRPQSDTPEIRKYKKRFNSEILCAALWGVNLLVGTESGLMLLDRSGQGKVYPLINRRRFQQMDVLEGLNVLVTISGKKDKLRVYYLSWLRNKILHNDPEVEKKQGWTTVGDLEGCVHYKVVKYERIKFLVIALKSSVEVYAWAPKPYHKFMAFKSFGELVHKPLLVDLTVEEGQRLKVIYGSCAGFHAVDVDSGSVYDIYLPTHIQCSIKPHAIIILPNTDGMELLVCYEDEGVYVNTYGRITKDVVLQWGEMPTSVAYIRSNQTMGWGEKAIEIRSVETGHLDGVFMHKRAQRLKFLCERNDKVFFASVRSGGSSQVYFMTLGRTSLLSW
T11 sequence (P04049 whole entry): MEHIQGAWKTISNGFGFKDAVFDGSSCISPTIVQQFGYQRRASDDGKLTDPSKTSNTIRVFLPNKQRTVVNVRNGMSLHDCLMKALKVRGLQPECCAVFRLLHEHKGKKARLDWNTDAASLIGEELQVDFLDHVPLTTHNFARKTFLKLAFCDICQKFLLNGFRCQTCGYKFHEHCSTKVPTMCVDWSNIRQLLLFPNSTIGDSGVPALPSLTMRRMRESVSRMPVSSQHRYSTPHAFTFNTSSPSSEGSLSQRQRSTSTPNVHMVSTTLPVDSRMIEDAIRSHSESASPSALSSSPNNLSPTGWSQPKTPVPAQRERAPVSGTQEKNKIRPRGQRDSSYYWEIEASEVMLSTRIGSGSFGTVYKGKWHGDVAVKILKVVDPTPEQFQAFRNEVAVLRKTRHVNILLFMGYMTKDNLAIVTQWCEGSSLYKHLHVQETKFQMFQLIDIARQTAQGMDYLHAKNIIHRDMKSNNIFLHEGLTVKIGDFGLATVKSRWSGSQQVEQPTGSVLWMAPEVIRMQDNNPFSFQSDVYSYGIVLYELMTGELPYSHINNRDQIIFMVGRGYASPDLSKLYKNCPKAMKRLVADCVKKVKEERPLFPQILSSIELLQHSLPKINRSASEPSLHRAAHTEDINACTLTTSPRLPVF
Sequence of Gsk3β (P49841 whole entry): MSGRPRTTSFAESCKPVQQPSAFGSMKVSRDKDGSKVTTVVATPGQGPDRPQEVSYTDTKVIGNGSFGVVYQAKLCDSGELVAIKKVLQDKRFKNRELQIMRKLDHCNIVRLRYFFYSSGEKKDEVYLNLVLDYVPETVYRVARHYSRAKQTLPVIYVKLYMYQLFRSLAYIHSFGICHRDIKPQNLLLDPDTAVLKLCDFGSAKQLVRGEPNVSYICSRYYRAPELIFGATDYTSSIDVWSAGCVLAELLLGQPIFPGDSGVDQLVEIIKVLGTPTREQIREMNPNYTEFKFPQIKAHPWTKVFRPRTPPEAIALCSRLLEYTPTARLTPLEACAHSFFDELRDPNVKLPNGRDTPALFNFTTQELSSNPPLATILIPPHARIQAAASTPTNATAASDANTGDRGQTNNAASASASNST

Row | Compound | IC50 (Abl) | IC50 (Kdr) | IC50 (Stk6) | IC50 (Gsk3β) | IC50 (B-Raf) | IC50 (B-Raf V600E) | IC50 (FGFR1) | IC50 (Fms) | IC50 (Kit) | IC50 (Src) | IC50 (MAP4K4) | IC50 (Btk) | IC50 (c-Raf-1) | IC50 (Jnk1) | IC50 (Jnk3) | IC50 (Met) | IC50 (Ret) | IC50 (Flt1) | IC50 (Pyk2)
1 | S=C(NCc1ccccn1)NCc1c[nH]c2ncccc12 [Compound P-0169] | ≤ 10 µM | ≤ 10 µM | ≤ 10 µM | ≤ 10 µM | – | – | – | – | – | – | – | – | – | – | – | – | – | – | –
2 | Nc1ccc(F)c(C(=O)c2c[nH]c3ncc(-c4cccnc4)cc23)c1F [Compound P-0763, (3-amino-2,6-difluoro-phenyl)-(5-pyridin-3-yl-1H-pyrrolo[2,3-b]pyridin-3-yl)-methanone] | – | – | – | ≤ 10 µM | ≤ 10 µM | ≤ 10 µM | ≤ 10 µM | ≤ 10 µM | ≤ 10 µM | ≤ 10 µM | – | ≤ 10 µM | ≤ 10 µM | ≤ 10 µM | ≤ 10 µM | ≤ 10 µM | ≤ 10 µM | – | –
3 | CCS(=O)(=O)Nc1ccc(F)c(C(=O)c2c[nH]c3ncc(-c4cccnc4)cc23)c1F [Compound P-0728, N-[2,4-difluoro-3-(5-pyridin-3-yl-1H-pyrrolo[2,3-b]pyridine-3-carbonyl)-phenyl]-ethanesulfonamide] | – | – | – | ≤ 10 µM | ≤ 10 µM | ≤ 10 µM | ≤ 10 µM | – | – | – | ≤ 10 µM | – | ≤ 10 µM | ≤ 10 µM | – | – | ≤ 10 µM | – | ≤ 10 µM

Next, values leading:

Row | IC50 (Abl) | IC50 (Kdr) | IC50 (Stk6) | IC50 (Gsk3β) | IC50 (B-Raf) | IC50 (B-Raf V600E) | IC50 (FGFR1) | IC50 (Fms) | IC50 (Kit) | IC50 (Src) | IC50 (MAP4K4) | IC50 (Btk) | IC50 (c-Raf-1) | IC50 (Jnk1) | IC50 (Jnk3) | IC50 (Met) | IC50 (Ret) | IC50 (Flt1) | IC50 (Pyk2) | Compound
4 | – | – | – | ≤ 10 µM | ≤ 10 µM | ≤ 10 µM | ≤ 10 µM | ≤ 10 µM | ≤ 10 µM | ≤ 10 µM | ≤ 10 µM | – | – | – | – | – | – | – | – | CCCS(=O)(=O)Nc1ccc(F)c(C(=O)c2c[nH]c3ncc(OCC)cc23)c1F [Compound P-1252, Propane-1-sulfonic acid [3-(5-ethoxy-1H-pyrrolo[2,3-b]pyridine-3-carbonyl)-2,4-difluoro-phenyl]-amide]
5 | – | – | – | ≤ 10 µM | – | – | – | ≤ 10 µM | ≤ 10 µM | – | ≤ 10 µM | – | – | – | ≤ 10 µM | – | – | ≤ 10 µM | ≤ 10 µM | CN(C)c1cccc(Nc2ccc3cc[nH]c3n2)c1 [Compound P-1372, N,N-Dimethyl-N′-(1H-pyrrolo[2,3-b]pyridin-6-yl)-benzene-1,3-diamine]
6 | – | – | – | ≤ 10 µM | ≤ 10 µM | ≤ 10 µM | ≤ 10 µM | ≤ 10 µM | ≤ 10 µM | – | ≤ 10 µM | – | ≤ 10 µM | – | – | – | – | – | – | O=C(c1c(F)ccc(NS(=O)(=O)c2ccccc2)c1F)c1c[nH]c2ncccc12 [Compound P-0913, N-[2,4-Difluoro-3-(1H-pyrrolo[2,3-b]pyridine-3-carbonyl)-phenyl]-benzenesulfonamide]
7 | – | – | – | ≤ 10 µM | ≤ 10 µM | ≤ 10 µM | ≤ 10 µM | – | – | – | ≤ 10 µM | – | ≤ 10 µM | – | – | – | – | – | – | O=C(c1c(F)ccc(NS(=O)(=O)c2ccccc2)c1F)c1c[nH]c2ncc(F)cc12 [Compound P-0902, N-[2,4-Difluoro-3-(5-fluoro-1H-pyrrolo[2,3-b]pyridine-3-carbonyl)-phenyl]-benzenesulfonamide]
